Results reported in patent publication US9326506B2, “Preparation method, agricultural composition and applications of natural brassinolide analogs” (CHENGDU NEWSUN CROPSCIENCE CO., LTD, priority 2012, dated 2016).

Test system: rice
Assay: Low temperature assay on rice seedlings
Type: in vivo
Description: According to a low temperature assay, we measured parameters including plant height, number of leaf, area of leaf, number of tiller, weight of root at low temperature to completely determine effects of the natural brassinolide analogues on the resistance to low temperature of a plant.
The natural brassinolide analogues, BR1, BR2, BR3, BR4, BR5 and BR6, used herein, were those prepared by the method of Example 1. Respectively the analogues were dissolved into 95% (V/V) ethanol solution, and then diluted with pure water to 1 mg/L, 0.1 mg/L, 0.01 mg/L, 0.001 mg/L and 0.0001 mg/L. In addition, pure water was used as a control.
After rice seeds were disinfected by using 5% sodium hypochlorite solution treatment, they were rinsed with distilled water until their pH>7, placed into a petri dish in a dark incubator, and cultured by using water at 30° C.±2° C. for 9 days. Then respectively the nine-day-old etiolated seedlings of rice were immersed in the above solutions containing different concentrations of the natural brassinolide analogues or pure water, and cultured at the temperature of 1° C., 2° C., 3° C., 4° C. and 5° C. for 24 hr. The parameters including plant height, area of leaf and weight of root after 3, 6, 9 and 12 days and number of leaf and number of tiller after 12 days were measured.

## CC(C)C[C@@H](O)[C@H](O)[C@@H](C)[C@H]1CCC2C3CC(=O)C4C[C@H](O)[C@H](O)C[C@]4(C)C3CC[C@@]21C (some centres unmarked) [BR5]
0.01 mg/l, 3 °C, 9 days
  Height: 7.5 cm
  Weight of root: 2.7 g
0.01 mg/l, 3 °C, 12 days
  Area of leaf: 13.2 cm^2
  Height: 7.9 cm
  Number of leaf: 3
  Number of tiller: 2
  Weight of root: 2.9 g
0.01 mg/l, 4 °C, 3 days
  Area of leaf: 10.8 cm^2
  Height: 7.1 cm
  Weight of root: 2.5 g
0.01 mg/l, 4 °C, 6 days
  Area of leaf: 12.4 cm^2
  Height: 7.5 cm
  Weight of root: 2.6 g
0.01 mg/l, 4 °C, 9 days
  Area of leaf: 13.1 cm^2
  Height: 7.6 cm
  Weight of root: 2.9 g
0.01 mg/l, 4 °C, 12 days
  Area of leaf: 13.5 cm^2
  Height: 7.8 cm
  Number of leaf: 3
  Number of tiller: 2
  Weight of root: 3.0 g
0.01 mg/l, 5 °C, 3 days
  Area of leaf: 10.3 cm^2
  Height: 7.4 cm
  Weight of root: 2.8 g
0.01 mg/l, 5 °C, 6 days
  Area of leaf: 13.1 cm^2
  Height: 7.4 cm
  Weight of root: 3.0 g
0.01 mg/l, 5 °C, 9 days
  Area of leaf: 16.4 cm^2
  Height: 8 cm
  Weight of root: 3.4 g
0.01 mg/l, 5 °C, 12 days
  Area of leaf: 17 cm^2
  Height: 8.2 cm
  Number of leaf: 4
  Number of tiller: 3
  Weight of root: 3.6 g
0.1 mg/l, 1 °C, 3 days
  Area of leaf: 10.1 cm^2
  Height: 7.0 cm
  Weight of root: 2.8 g
0.1 mg/l, 1 °C, 6 days
  Area of leaf: 11 cm^2
  Height: 7.2 cm
  Weight of root: 3.0 g
0.1 mg/l, 1 °C, 9 days
  Area of leaf: 12 cm^2
  Height: 7.2 cm
  Weight of root: 3.4 g
0.1 mg/l, 1 °C, 12 days
  Area of leaf: 13.4 cm^2
  Height: 7.4 cm
  Number of leaf: 3
  Number of tiller: 3
  Weight of root: 3.4 g
0.1 mg/l, 2 °C, 3 days
  Area of leaf: 10.4 cm^2
  Height: 7.1 cm
  Weight of root: 2.8 g
0.1 mg/l, 2 °C, 6 days
  Area of leaf: 11.2 cm^2
  Height: 7.3 cm
  Weight of root: 3.0 g
0.1 mg/l, 2 °C, 9 days
  Area of leaf: 12.4 cm^2
  Height: 7.3 cm
  Weight of root: 3.1 g
0.1 mg/l, 2 °C, 12 days
  Area of leaf: 13.6 cm^2
  Height: 7.4 cm
  Number of leaf: 3
  Number of tiller: 3
  Weight of root: 3.2 g
0.1 mg/l, 3 °C, 3 days
  Area of leaf: 10.5 cm^2
  Height: 7.4 cm
  Weight of root: 2.5 g
0.1 mg/l, 3 °C, 6 days
  Area of leaf: 12 cm^2
  Height: 7.4 cm
  Weight of root: 2.7 g
0.1 mg/l, 3 °C, 9 days
  Area of leaf: 12.6 cm^2
  Height: 7.9 cm
  Weight of root: 2.7 g
0.1 mg/l, 3 °C, 12 days
  Area of leaf: 13.4 cm^2
  Height: 7.9 cm
  Number of leaf: 3
  Number of tiller: 2
  Weight of root: 2.9 g
0.1 mg/l, 4 °C, 3 days
  Area of leaf: 10.8 cm^2
  Height: 7.5 cm
  Weight of root: 2.5 g
0.1 mg/l, 4 °C, 6 days
  Area of leaf: 12.1 cm^2
  Height: 7.5 cm
  Weight of root: 2.7 g
0.1 mg/l, 4 °C, 9 days
  Area of leaf: 13.2 cm^2
  Height: 8 cm
  Weight of root: 2.9 g
0.1 mg/l, 4 °C, 12 days
  Area of leaf: 13.8 cm^2
  Height: 8 cm
  Number of leaf: 3
  Number of tiller: 2
  Weight of root: 3 g
0.1 mg/l, 5 °C, 3 days
  Area of leaf: 11 cm^2
  Height: 7.5 cm
  Weight of root: 2.9 g
0.1 mg/l, 5 °C, 6 days
  Area of leaf: 12.9 cm^2
  Height: 7.6 cm
  Weight of root: 3.2 g
0.1 mg/l, 5 °C, 9 days
  Area of leaf: 16.8 cm^2
  Height: 8 cm
  Weight of root: 3.5 g
0.1 mg/l, 5 °C, 12 days
  Area of leaf: 19 cm^2
  Height: 8.3 cm
  Number of leaf: 3
  Number of tiller: 2
  Weight of root: 4.1 g
1 mg/l, 1 °C, 3 days
  Area of leaf: 10 cm^2
  Height: 7.0 cm
  Weight of root: 2.6 g
1 mg/l, 1 °C, 6 days
  Area of leaf: 11.2 cm^2
  Height: 7.3 cm
  Weight of root: 3.1 g
1 mg/l, 1 °C, 9 days
  Area of leaf: 12.4 cm^2
  Height: 7.3 cm
  Weight of root: 3.1 g
1 mg/l, 1 °C, 12 days
  Area of leaf: 13 cm^2
  Height: 7.9 cm
  Number of leaf: 3
  Number of tiller: 3
  Weight of root: 3.7 g
1 mg/l, 2 °C, 3 days
  Area of leaf: 10.2 cm^2
  Height: 7.1 cm
  Weight of root: 2.6 g
1 mg/l, 2 °C, 6 days
  Area of leaf: 11.7 cm^2
  Height: 7.2 cm
  Weight of root: 3.0 g
1 mg/l, 2 °C, 9 days
  Area of leaf: 12.6 cm^2
  Height: 7.2 cm
  Weight of root: 3.2 g
1 mg/l, 2 °C, 12 days
  Area of leaf: 12.8 cm^2
  Height: 7.8 cm
  Number of leaf: 3
  Number of tiller: 3
  Weight of root: 3.7 g
1 mg/l, 3 °C, 3 days
  Area of leaf: 10.4 cm^2
  Height: 7.2 cm
  Weight of root: 2.5 g
1 mg/l, 3 °C, 6 days
  Area of leaf: 12 cm^2
  Height: 7.5 cm
  Weight of root: 2.6 g
1 mg/l, 3 °C, 9 days
  Area of leaf: 12.1 cm^2
  Height: 7.6 cm
  Weight of root: 2.8 g
1 mg/l, 3 °C, 12 days
  Area of leaf: 13 cm^2
  Height: 8.1 cm
  Number of leaf: 3
  Number of tiller: 2
  Weight of root: 2.9 g
1 mg/l, 4 °C, 3 days
  Area of leaf: 10.9 cm^2
  Height: 7.2 cm
  Weight of root: 2.5 g
1 mg/l, 4 °C, 6 days
  Area of leaf: 12.6 cm^2
  Height: 7.5 cm
  Weight of root: 2.7 g
1 mg/l, 4 °C, 9 days
  Area of leaf: 13.2 cm^2
  Height: 7.8 cm
  Weight of root: 3.1 g
1 mg/l, 4 °C, 12 days
  Area of leaf: 13.4 cm^2
  Height: 8.2 cm
  Number of leaf: 3
  Number of tiller: 2
  Weight of root: 3.2 g
1 mg/l, 5 °C, 3 days
  Area of leaf: 11.1 cm^2
  Height: 7.3 cm
  Weight of root: 2.9 g
1 mg/l, 5 °C, 6 days
  Area of leaf: 13.1 cm^2
  Height: 7.7 cm
  Weight of root: 3.5 g
1 mg/l, 5 °C, 9 days
  Area of leaf: 18 cm^2
  Height: 8 cm
  Weight of root: 3.6 g
1 mg/l, 5 °C, 12 days
  Area of leaf: 20 cm^2
  Height: 8.4 cm
  Number of leaf: 3
  Number of tiller: 2
  Weight of root: 4.5 g
In vivo
  Effects on resistance to low temperature compared among analogues: more than those of BR2, BR3 and BR4
